{"source": "patent US20160058829A1", "about": "“ANTI-FIBROTIC PEPTIDES AND THEIR USE IN METHODS FOR TREATING DISEASES AND DISORDERS CHARACTERIZED BY FIBROSIS” (Thrasos Innovation, Inc., priority 2011, published 2016)", "key": {"HK-2 cells": {"test_system": "HK-2 cells", "test": "TNF-α-induced inflammatory cytokine production in HK-2 cells (ELISA)", "format": "cell-based, human", "conditions": "HK-2 cells", "description": "FIG. 37 provides a bar graph showing a comparison of the effects of THR-123 (or “THR-1405”) and the specific inhibitor SB 203580 on the level of TNF-α-induced IL-6 production, an inflammatory marker, in human renal tubule epithelial cells (HK-2).\nFIG. 47A-FIG. 47C Anti-inflammatory activity of THR-123. PTEC-derived HK-2 (HK-2) cells were culture on 24-well plate (30,000 cells/well). Cells are exposed to K-SFM medium alone or TNF-α (5 ng/ml). Twenty hours after TNF-α incubation, cells are washed twice by pre-warmed culture media and subsequently cells are incubated with various concentration of THR-123 or BMP7 for 60 hours. At the end of incubation, culture medias are harvested and ELISA analysis are performed. FIG. 47A: IL-6, FIG. 47B: IL-8 and FIG. 47C: ICAM-1 results are shown. Analyze are performed in triplicates and data are shown as mean±s.e.m. in the graph.\nPreliminary screening for optimization was based on anti-inflammatory efficacy in an in vitro cell-based assay using a human renal tubular epithelial cell line (HK-2). The assay tested the ability of compounds to reverse the increase in production of cytokine IL-6 that resulted from stimulation of the cells with tumor necrosis factor (TNF)-α. Sequence-activity analysis was carried out using the SVA program. After six optimization cycles, THR-123 (FIG. 2A) emerged as the lead compound, which was further evaluated in other relevant anti-fibrosis assays (vide infra).\nHuman proximal tubular epithelial cells-derived HK-2 cells were culture on 24-well plate (30,000 cells/well). Cells are exposed to K-SFM medium alone or […] (5 ng/ml). Twenty hours after TNF-α incubation, cells are washed twice by pre-warmed culture media and subsequently cells are incubated with various concentration of THR-123 or BMP7 for 60 hours. At the end of incubation, culture medias are harvested and ELISA analysis for IL-6, IL-8 and ICAM-1 are performed."}, "[1]": {"test_system": "Streptozotocin-induced diabetic CD-1 mice", "test": "STZ-induced diabetic nephropathy study (THR-123 month 5-6, BMP-7 month 1-6)", "format": "in vivo", "conditions": "for net increase in FSP1 (mesenchymal tissue) at six months versus normal animals: BMP7 five months, SEQ ID NO: 1 final month, untreated 27 and 29 times; for interstitial fibrosis (collagen accumulation, Masson's trichrome): THR-123 5 mg/kg/day oral; for increase in BUN level relative to normal animals: untreated 85% at 5 months, 94% at 6 months", "description": "FIG. 17 depicts the STZ experimental protocol behind the study discussed in Example 2. […] Mice were given a single intraperitoneal injection of Streptozotocin (STZ) in sodium citrate buffer (pH 4.5) at a dose of 200 mg/kg. Blood glucose was measured by tail vein sampling using the glucose oxidase enzymatic test (Medisense glucometer, Abbott Laboratories, Bedford, Mass.). Diabetic nephropathy was evaluated in groups of mice killed at the end of 5 or 6 months (vehicle control groups) or 6 months (THR123 or BMP-7 group) after STZ injection. A group of STZ injected mice received oral administration of Thrasos compound daily at a dose of 5 mg/kg body weight for a month, from month 5 to month 6 after STZ injection. BMP-7 was administered intraperitoneally at a dose of 300 μg/kg body weight from month 1 to month 6.\nAnalysis of fibrosis in the H&E and Masson's trichrome stain in FIG. 18 through 22 from the mouse STZ study outlined in FIG. 17. Using the same image color analysis method used above to quantitate E-cadherin fluorescence for the in vitro EMT experiments, the images were quantitated, and the results shown in FIG. 23.\nEight weeks old male CD-1 mice are used all the diabetic experiment. Mice are performed single intraperitoneal (i.p.) injection of streptozotocin (STZ: 200 mg/Kg). Induction of diabetes is defined as blood glucose level >16 mM by 2 weeks after STZ injection. One month after induction of diabetes, mice were separated into three groups (BMP7, vehicle and non-treatment) and BMP7 (i.p. 300 μg/Kg/every other day) or vehicle injection was initiated. Five months after induction of diabetes, THR-123 (p.o. 5 mg/Kg/day) administration is initiated in diabetic mice. Mice are sacrificed at 5 (before the treatment) or 6 months after induction of diabetes."}, "UUO animals": {"test_system": "UUO animals", "test": "Unilateral ureteral obstruction (UUO), FIG. 33-34", "format": "in vivo", "conditions": "for hydroxyproline content (total collagen) of UUO kidneys: 3-fold increase in vehicle-treated UUO kidneys; for expansion of the interstitial space: UUO animals showed 3 fold expansion", "excerpt": "In the animals given BMP-7 or […] Hydroxyproline content, a measure of total collagen, increased 3-fold in the vehicle-treated UUO kidneys compared with sham-operated kidneys. […]"}, "[2]": {"conditions": "THR-123 month 5-6, BMP-7 month 1-6"}, "[3]": {"conditions": "THR-123 month 5-6, BMP-7 month 1-6, listed as THR-123"}}, "note": "“Also recorded” adds a separate entry of the source. Positions of bridges follow the written chain, without caps; N, C: chain ends.", "data": [{"molecule": "(H)-CYFDDSSNVLCKKYRS-(OH) (H-CYFDDSSNVLCKKYRS-OH; disulfide 1-11; SMILES CC(C)C[C@@H]1NC(=O)[C@H](C(C)C)NC(=O)[C@H](CC(N)=O)NC(=O)[C@H](CO)NC(=O)[C@H](CO)NC(=O)[C@H](CC(=O)O)NC(=O)[C@H](CC(=O)O)NC(=O)[C@H](Cc2ccccc2)NC(=O)[C@H](Cc2ccc(O)cc2)NC(=O)[C@@H](N)CSSC[C@@H](C(=O)N[C@@H](CCCCN)C(=O)N[C@@H](CCCCN)C(=O)N[C@@H](Cc2ccc(O)cc2)C(=O)N[C@@H](CCCNC(=N)N)C(=O)N[C@@H](CO)C(=O)O)NC1=O) [SEQ ID NO: 1]", "values": [{"measurement": "TNF-α-induced ICAM-1 production", "setting": "HK-2 cells", "value": "inhibits"}, {"measurement": "TNF-α-induced IL-8 production", "setting": "HK-2 cells", "value": "inhibits"}, {"measurement": "TNF-α-induced IL-6 production", "setting": "HK-2 cells; listed as THR-123", "value": "inhibited TNF-α induced IL-6 production in dose dependent manner; also recorded: significantly reduced"}, {"measurement": "net increase in FSP1 (mesenchymal tissue) at six months versus normal animals", "setting": "[1]", "value": 2, "unit": "times"}, {"measurement": "interstitial fibrosis (collagen accumulation, Masson's trichrome)", "setting": "[1]; month 5 to 6, listed as THR123, 5 mg/kg/day", "value": "reduced renal fibrosis"}, {"measurement": "interstitial fibrosis (collagen accumulation, Masson's trichrome)", "setting": "[1]; month 5 to 6, listed as THR-123, 5 mg/kg/day", "value": "lower than it was at 5 months; also recorded: markedly reduced"}, {"measurement": "glomerular surface area", "setting": "[1]; [2]", "value": "little effect"}, {"measurement": "relative interstitial volume", "setting": "[1]; THR-123 month 5-6, BMP-7 month 1-6, listed as THR123", "value": "decreased interstitial volume"}, {"measurement": "BUN levels / renal function", "setting": "[1]; [3]", "value": "reversed renal dysfunction; also recorded: dropped to those of control animals"}, {"measurement": "damaged tubules / tubular atrophy", "setting": "[1]; [3]", "value": "inhibited tubular atrophy and interstitial volume increase; also recorded: reversed tubular atrophy and interstitial volume expansion; also recorded: markedly reduced"}, {"measurement": "mesangial matrix expansion", "setting": "[1]; [3]", "value": "inhibited mesangium expansion; also recorded: reversed mesangial matrix expansion; also recorded: significantly reduced"}, {"measurement": "relative interstitial volume", "setting": "[1]; [3]", "value": "markedly reduced"}, {"measurement": "EMT program (FSP1 and E-cadherin double positive tubules)", "setting": "[1]; mouse, in vivo", "value": "inhibited EMT program"}, {"measurement": "macrophage infiltration (Mac-1)", "setting": "[1]; mouse, in vivo", "value": "significantly reduced the infiltration by macrophages"}, {"measurement": "phospho-Smad1/5 accumulation in kidney", "setting": "[1]; mouse, in vivo", "value": "increased accumulation of phospho-Smad1/5"}, {"measurement": "FSP-1 marker concentration relative to levels at 5 and 6 months", "setting": "[1]; one month treatment, month 5 to 6", "value": "less than 1/10"}, {"measurement": "increase in mesangial matrix at 6 months", "setting": "[1]; untreated 64% at 5 months, 104% at 6 months", "value": 37, "unit": "%"}, {"measurement": "increase in BUN level relative to normal animals", "setting": "[1]", "value": 17, "unit": "%"}, {"measurement": "increase in BUN level relative to normal animals", "setting": "[1]; listed as THR-123", "value": 12, "unit": "%"}, {"measurement": "hydroxyproline content (total collagen) of UUO kidneys", "setting": "UUO animals", "value": "effectively decreased"}, {"measurement": "expansion of the interstitial space", "setting": "UUO animals", "value": "significantly reduced"}]}, {"molecule": "BMP-7: bone morphogenetic protein-7; recombinant human BMP7, positive control (protein) STGSKQRSQNRSKTPKNQEALRMANVAENSSSDQRQACKKHELYVSFRDLGWQDWIIAPEGYAAYYCEGECAFPLNSYMNATNHAIVQTLVHFINPETVPKPCCAPTQLNAISVLYFDDSSNVILKKYRNMVVRACGCH", "values": [{"measurement": "TNF-α-induced IL-6 production", "setting": "HK-2 cells", "value": "inhibited TNF-α induced IL-6 production in dose dependent manner"}, {"measurement": "net increase in FSP1 (mesenchymal tissue) at six months versus normal animals", "setting": "[1]", "value": 3, "unit": "times"}, {"measurement": "BUN levels / renal function", "setting": "[1]; [2]", "value": "reversed renal dysfunction; also recorded: dropped to those of control animals"}, {"measurement": "damaged tubules / tubular atrophy", "setting": "[1]; [2]", "value": "inhibited tubular atrophy and interstitial volume increase"}, {"measurement": "mesangial matrix expansion", "setting": "[1]; [2]", "value": "inhibited mesangium expansion; also recorded: significantly reduced"}, {"measurement": "relative interstitial volume", "setting": "[1]; [2]", "value": "markedly reduced"}, {"measurement": "damaged tubules / tubular atrophy", "setting": "[1]; THR-123 month 5-6, BMP-7 month 1-6, listed as BMP", "value": "halts the progression"}, {"measurement": "mesangial matrix expansion", "setting": "[1]; THR-123 month 5-6, BMP-7 month 1-6, listed as BMP7", "value": "unaffected"}, {"measurement": "EMT program (FSP1 and E-cadherin double positive tubules)", "setting": "[1]; mouse, in vivo", "value": "inhibited EMT program"}, {"measurement": "macrophage infiltration (Mac-1)", "setting": "[1]; mouse, in vivo", "value": "significantly reduced the infiltration by macrophages"}, {"measurement": "increase in BUN level relative to normal animals", "setting": "[1]", "value": 2, "unit": "%"}, {"measurement": "hydroxyproline content (total collagen) of UUO kidneys", "setting": "UUO animals", "value": "effectively decreased"}, {"measurement": "expansion of the interstitial space", "setting": "UUO animals", "value": "significantly reduced"}]}]}
